The values that follow come from ChEMBL document CHEMBL3994671, “Similarity- and Substructure-Based Development of β2-Adrenergic Receptor Ligands Based on Unusual Scaffolds” (ACS Med Chem Lett, 2017).

One test is filed under the species Homo sapiens. Put plainly: Selectivity ratio of Kd for human beta1-AR expressed in CHOK1 cells to Kd for human beta2-AR expressed in CHOK1 cells. Format: cell-based.
Test [1] addresses T1, Beta-2 adrenergic receptor (Homo sapiens, UniProt P07550). The test can be described thus: Displacement of [3H](-)CGP12177 from human beta2-AR expressed in CHOK1 cells after 2 hrs by TopCount microscintillation counting method. It counts as cell-based.
Test [2] addresses T2, Beta-1 adrenergic receptor (Homo sapiens, UniProt P08588). Put plainly: Displacement of [3H](-)CGP12177 from human beta1-AR expressed in CHOK1 cells after 2 hrs by TopCount microscintillation counting method. It counts as cell-based.
Target sequence in this assay (P08588 whole entry): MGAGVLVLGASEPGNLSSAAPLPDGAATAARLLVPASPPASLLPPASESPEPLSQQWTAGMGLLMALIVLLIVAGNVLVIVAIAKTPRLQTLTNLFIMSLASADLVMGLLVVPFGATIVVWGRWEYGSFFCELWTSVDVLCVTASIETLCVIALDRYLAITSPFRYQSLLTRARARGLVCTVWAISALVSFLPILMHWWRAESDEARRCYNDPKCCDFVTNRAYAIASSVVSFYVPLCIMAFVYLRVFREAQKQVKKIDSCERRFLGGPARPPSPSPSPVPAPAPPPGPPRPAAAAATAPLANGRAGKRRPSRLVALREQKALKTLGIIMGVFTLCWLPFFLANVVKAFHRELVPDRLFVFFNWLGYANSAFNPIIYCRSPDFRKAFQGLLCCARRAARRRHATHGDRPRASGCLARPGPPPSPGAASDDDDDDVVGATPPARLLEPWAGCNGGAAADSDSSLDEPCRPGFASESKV
Test [3] deals with T1, Beta-2 adrenergic receptor. Put plainly: Neutral antagonist activity at human beta2-AR expressed in CHOK1 cells assessed as inhibition of cimaterol-induced CRE-SPAP production at 100 uM after 5 hrs. It counts as functional, cell-based.
Target sequence in this assay (P07550 whole entry, looked up): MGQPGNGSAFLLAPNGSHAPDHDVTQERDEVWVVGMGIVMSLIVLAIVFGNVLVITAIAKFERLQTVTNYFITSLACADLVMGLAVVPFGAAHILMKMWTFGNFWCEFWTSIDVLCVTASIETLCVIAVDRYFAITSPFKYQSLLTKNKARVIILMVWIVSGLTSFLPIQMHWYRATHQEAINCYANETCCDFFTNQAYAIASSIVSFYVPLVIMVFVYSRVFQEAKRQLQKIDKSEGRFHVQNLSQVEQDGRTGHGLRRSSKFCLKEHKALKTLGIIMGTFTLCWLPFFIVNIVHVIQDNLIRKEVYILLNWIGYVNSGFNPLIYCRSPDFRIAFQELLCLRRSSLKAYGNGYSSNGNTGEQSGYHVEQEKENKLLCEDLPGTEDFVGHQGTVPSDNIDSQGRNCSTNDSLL
Test [4] addresses T2, Beta-1 adrenergic receptor. The test can be described thus: Neutral antagonist activity at human beta1-AR expressed in CHOK1 cells assessed as inhibition of cimaterol-induced CRE-SPAP production at 100 uM after 5 hrs. Format: functional, cell-based.
Target sequence in this assay (P08588 whole entry, looked up): as the sequence (P08588 whole entry) above
In test [5] the target is T1, Beta-2 adrenergic receptor. The test can be described thus: Displacement of [3H]DHA from beta2-AR (unknown origin) expressed in baculovirus infected sf9 cell membranes after 1 hr by scintillation counting method.
Target sequence in this assay (P07550 whole entry): as the sequence (P07550 whole entry, looked up) above
Test [6] addresses T1, Beta-2 adrenergic receptor. The test can be described thus: Antagonist activity at human beta2-AR expressed in CHOK1 cells assessed as inhibition of cimaterol-induced CRE-SPAP production at 100 uM after 5 hrs. It counts as functional, cell-based.
Target sequence in this assay (P07550 whole entry, looked up): as above
In test [7] the target is T2, Beta-1 adrenergic receptor. The test can be described thus: Antagonist activity at human beta1-AR expressed in CHOK1 cells assessed as inhibition of cimaterol-induced CRE-SPAP production at 100 uM after 5 hrs. It counts as functional, cell-based.
Target sequence in this assay (P08588 whole entry, looked up): as the sequence (P08588 whole entry) above
The target in test [8] is T2, Beta-1 adrenergic receptor. The test can be described thus: Partial agonist activity at human beta1-AR expressed in CHOK1 cells assessed as CRE-SPAP production after 5 hrs. Format: functional, cell-based.
Target sequence in this assay (P08588 whole entry, looked up): as the sequence (P08588 whole entry) above
The target in test [9] is T2, Beta-1 adrenergic receptor. The test can be described thus: Partial agonist activity at human beta1-AR expressed in CHOK1 cells assessed as CRE-SPAP production after 5 hrs in presence of beta1-AR antagonist CGP20712A. Format: functional, cell-based.
Target sequence in this assay (P08588 whole entry, looked up): as the sequence (P08588 whole entry) above
Test [10] has as its target T1, Beta-2 adrenergic receptor. Put plainly: Partial agonist activity at human beta2-AR expressed in CHOK1 cells assessed as inhibition of cimaterol-induced CRE-SPAP production after 5 hrs. It counts as functional, cell-based.
Target sequence in this assay (P07550 whole entry): as the sequence (P07550 whole entry, looked up) above
Test [11] addresses T2, Beta-1 adrenergic receptor. The test can be described thus: Partial agonist activity at human beta1-AR expressed in CHOK1 cells assessed as inhibition of cimaterol-induced CRE-SPAP production after 5 hrs. It counts as functional, cell-based.
Target sequence in this assay (P08588 whole entry, looked up): as the sequence (P08588 whole entry) above
Test [12] concerns the target T1, Beta-2 adrenergic receptor. Put plainly: Antagonist activity at human beta2-AR expressed in CHOK1 cells assessed as inhibition of cimaterol-induced CRE-SPAP production at 20 uM after 5 hrs. It counts as functional, cell-based.
Target sequence in this assay (P07550 whole entry, looked up): as the sequence (P07550 whole entry, looked up) above
Test [13] concerns the target T2, Beta-1 adrenergic receptor. The test can be described thus: Antagonist activity at human beta1-AR expressed in CHOK1 cells assessed as inhibition of cimaterol-induced CRE-SPAP production at 20 uM after 5 hrs. Format: functional, cell-based.
Target sequence in this assay (P08588 whole entry, looked up): as the sequence (P08588 whole entry) above
Test [14] concerns the target T1, Beta-2 adrenergic receptor. Put plainly: Antagonist activity at human beta2-AR expressed in CHOK1 cells assessed as inhibition of cimaterol-induced CRE-SPAP production at 2 uM after 5 hrs. It counts as functional, cell-based.
Target sequence in this assay (P07550 whole entry, looked up): as the sequence (P07550 whole entry, looked up) above
Test [15] deals with T2, Beta-1 adrenergic receptor. The test can be described thus: Antagonist activity at human beta1-AR expressed in CHOK1 cells assessed as inhibition of cimaterol-induced CRE-SPAP production at 2 uM after 5 hrs. It counts as functional, cell-based.
Test [16] deals with T2, Beta-1 adrenergic receptor. Put plainly: Displacement of [3H](-)CGP12177 from human beta1-AR expressed in CHOK1 cells at 20 to 100 uM after 2 hrs by TopCount microscintillation counting method relative to control. It counts as cell-based.

Activity calls are given as the source filed them. No cut-off for these calls is given here. Some results are limits rather than exact numbers.

With `Cc1cc(O)c(CN2CCCC2)c2c1C(=O)/C(=C/c1cc3ccccc3o1)O2`, the Selectivity ratio in the test listed under Homo sapiens turned out to be 2.6.

In the case of `CN(C)CCOCCOc1ccccc1-c1ccccc1`, the figures for the Kd in test [1] (read-out: pKd (converted)) and in [2] were 3.8 µM and 45.7 µM, respectively. Also, the Selectivity ratio in the test filed under Homo sapiens worked out at 12. In addition, the inhibition result in test [3] and in test [4] was “Active” throughout.

With `C[n+]1c(C2=C(N)N(c3ccccc3)CC2=O)sc2ccccc21`, the inhibition result in [1] is “inactive”.

Turning to `Cc1cc(O)c(CN(C)C)c2c1C(=O)/C(=C/c1ccccc1)O2`, the Selectivity ratio in the test filed under Homo sapiens was 1.9.

On to `C[n+]1c(/C=C/Nc2ccccc2)sc2ccccc21`, for which the Kd in test [1] (read-out: pKd (converted)) was 38.9 µM. Besides, the Selectivity ratio in the test filed under Homo sapiens came out at 6.6.

As to `CCN1C(=Cc2sc3ccccc3[n+]2C)C=Cc2cccc(C)c21`, the inhibitory constant (Ki) in test [5] fell in the range of 0.009 to 3.2 µM.

As to `COc1ccc(C(=O)C[n+]2c(C)n(C(F)F)c3ccccc32)cc1`, the inhibition entry in test [1] is “Active”. Further, the inhibition entry in test [6] and in [7] was “inactive” each time.

As for `C=CCNCCOc1ccccc1-c1ccccc1`, the Kd is 2.63 µM in [1] (read-out: pKd (converted)) and 27.5 µM in test [2]. The Selectivity ratio in the test filed under Homo sapiens turned out to be 10.5. The inhibition result in test [6] and in [7] was “Active” throughout.

As to `CCNCCOc1ccccc1-c1ccccc1`, the Ki in [5] was 0.009 to 3.2 µM.

Turning to `CC(C)(C)NCC(O)COc1ccccc1-c1ccccc1` (centres undefined) [BERLAFENONE], in test [1] (read-out: Kd), the Kd is 3.5e-05 µM.

`Cc1cc(O)c(CN2CCCC2)c2c1C(=O)/C(=C\c1ccco1)O2` displayed an inhibition constant Ki in test [5] of 0.009 to 3.2 µM.

For `COc1cccc(/C=C2\Oc3c(CN4CCN(C)CC4)c(O)cc(C)c3C2=O)c1`, the Kd was 17.4 µM in [1] (read-out: pKd (converted)) and 26.3 µM in test [2]. The Selectivity ratio in the test filed under Homo sapiens worked out at 1.5.

`CN(C)CCOc1ccc2ccccc2c1C=O`: in test [1] (read-out: pKd (converted)), the Kd was 23.4 µM. Also, the Selectivity ratio in the test listed under Homo sapiens was determined as 4.2.

Take `CC(O)CNCCOc1ccccc1-c1ccccc1` (centres undefined): the Ki in test [5] is 0.009 to 3.2 µM.

Consider `Cc1n(-c2ccccc2)c2ccc(Cl)cc2[n+]1CCO`, for which the inhibition result in [1] was “Active”. The inhibition entry in test [6] and in [7] was “inactive” each time.

For the molecule `CC(C)(C)NC[C@@H](O)COc1ccccc1-c1ccccc1`, the figures for the Kd in test [1] (read-out: pKd (converted)), in test [2] and in test [10] were 3.55e-05 µM, 0.000977 µM and 18.2 pM, respectively. Also, in the test filed under Homo sapiens, the Selectivity ratio came out at 27.5. Further, the outcome in test [8] was Active. Moreover, in test [9], the outcome was inactive. Moreover, in test [11], the inhibition entry was “Active”.

`COc1cccc(/C=C2\Oc3c(CN(C)C)c(O)cc(C)c3C2=O)c1`: the Kd in test [1] (read-out: pKd (converted)) was 21.9 µM; in [2], 44.7 µM. Moreover, in the test listed under Homo sapiens, the Selectivity ratio came to 2.

Regarding `C[n+]1c(/C=C/c2ccccc2Cl)sc2ccccc21`, the Kd was 4.9 µM in [1] (read-out: pKd (converted)) and 13.8 µM in [2]. Further, the Selectivity ratio in the test listed under Homo sapiens came out at 2.8.

As for `COCCNCCOc1ccccc1-c1ccccc1`, the inhibition constant Ki in [5] was in the range of 0.009 to 3.2 µM.

With `COc1cccc(/C=C2\Oc3c(CN4CCCC4)c(O)cc(C)c3C2=O)c1`, the Kd was 5.5 µM in test [1] (read-out: pKd (converted)) and 35.5 µM in test [2]. The Selectivity ratio in the test listed under Homo sapiens stood at 6.5. The inhibition entry in test [6] and in test [7] was “Active” in each case.

As for `CCOC(=O)c1cc(/C=C/c2sc3ccccc3[n+]2C)c2sc3ccccc3n12`, the Kd was 0.891 µM in test [1] (read-out: pKd (converted)) and 3.09 µM in test [2]. Further, the Selectivity ratio in the test filed under Homo sapiens is 3.5. The inhibition entry in [12], in [13] and in test [14] was “Active” each time. Moreover, the inhibition result in [15] is “inactive”.

In [16], `CCCCN(C)Cc1c(O)cc(C)c2c1O/C(=C\c1cc3cc(Br)ccc3o1)C2=O` displayed an inhibition of less than 50%.

Turning to `CCOC(=O)C1Oc2cccc(OCC(O)CNC(C)C)c2C1C` (centres undefined), the Ki in test [5] was in the range of 0.009 to 3.2 µM.
